Measurements from patent publication EP0162494A1, “Process for the preparation of a 3-hydroxy-2,3-dihydrobenzisothiazole 1,1-dioxide and the use of this compound as a biocide and for preparing an ortho-sulphobenzimide” (AKZO N.V., priority 1984, dated 1985).
≈ marks a conversion by molar mass, not a printed value.

Legend:
Staphylococcus aureus = test: MIC, modified DGHM dilution method; type: cell-based; conditions: A.C. = active compound
yeasts = test: MIC, DGHM dilution test method, by type of microorganism; type: cell-based; conditions: read-out: minimum growth inhibiting concentration (MIC value)
Description: (§1) The minimum growth inhibiting concentration (MIC value) of 3-hydroxy-2,3-dihydrobenzisothiazole-1,1-dioxide for the different types of microorganisms was determined in conformity with the dilution test method of the "Deutsche Gesellschaft fUr Hygiene und Mikrobiologie" (DGHM) and are: […]

gram negative bacteria = test: as above; type: cell-based; conditions: read-out: minimum growth inhibiting concentration (MIC value)
Description: as §1

gram positive bacteria = test: as above; type: cell-based; conditions: read-out: minimum growth inhibiting concentration (MIC value)
Description: as §1

fungi = test: as above; type: cell-based; conditions: read-out: minimum growth inhibiting concentration (MIC value)
Description: as §1

Pellicularia sasaki = test: MIC, modified DGHM dilution method; type: cell-based; conditions: A.C. = active compound
Paecillomyces varioti = test: MIC, modified DGHM dilution method; type: cell-based; conditions: A.C. = active compound
Chaetomium globosum = test: MIC, modified DGHM dilution method; type: cell-based; conditions: A.C. = active compound
Pyricularia oryzae = test: microbe, parasite or virus in culture; type: cell-based; conditions: read-out: MIC-values
Streptococcus faecalis = test: MIC, modified DGHM dilution method; type: cell-based; conditions: Enterococcus faecalis, A.C. = active compound
[1] = tested on: sulfphate reducing bacteria; test: Bacteriostatic activity towards sulphate reducing bacteria; type: cell-based; conditions: result in words
certain bacteria = test: Synergy with quaternary ammonium compounds; type: cell-based; conditions: in combination with some quaternary ammonium compounds such as dimethylbenzyl coco-ammonium chloride or didecyldimethyl ammonium chloride
Aspergillus niger = test: MIC, modified DGHM dilution method; type: cell-based; conditions: A.C. = active compound
Saccharomyces cerevisiae = test: MIC, modified DGHM dilution method; type: cell-based; conditions: A.C. = active compound
[2] = Acute oral toxicity in rats; type: in vivo; conditions: for LD50 at 24 h / LD50 at 48 h / LD50 at 336 h: rat, in vivo, po; for LD50 at 24 h: after 24 hours; for LD50 at 48 h: after 48 hours; for LD50 at 336 h: after 14 days
Candida albicans = test: MIC, modified DGHM dilution method; type: cell-based; conditions: A.C. = active compound
Escherichia coli = test: MIC, modified DGHM dilution method; type: cell-based; conditions: A.C. = active compound
Pseudomonas aeruginosa = test: MIC, modified DGHM dilution method; type: cell-based; conditions: A.C. = active compound
Proteus mirabilis = test: MIC, modified DGHM dilution method; type: cell-based; conditions: A.C. = active compound
Trichoderma viride = test: MIC, modified DGHM dilution method; type: cell-based; conditions: A.C. = active compound

Structure (SMILES)	MIC (Staphylococcus aureus) [µg/mL]	MIC (Pellicularia sasaki) [µg/mL]	MIC (Paecillomyces varioti) [µg/mL]	MIC (Chaetomium globosum) [µg/mL]	MIC (Pyricularia oryzae) [µg/mL]	MIC (Streptococcus faecalis) [µg/mL]	MIC (Aspergillus niger) [µg/mL]	MIC (Saccharomyces cerevisiae) [µg/mL]	MIC (Candida albicans) [µg/mL]	MIC (Escherichia coli) [µg/mL]	MIC (Pseudomonas aeruginosa) [µg/mL]	MIC (Proteus mirabilis) [µg/mL]	MIC (Trichoderma viride) [µg/mL]	also measured
O=S1(=O)NC(O)c2ccccc21 (stereo not drawn) [3-hydroxy-2,3-dihydrobenzisothiazole-1,1-dioxide]	600 to 1200 (≈ 3.24 to 6.48 mM)	150 (≈ 0.81 mM)	18.8 to 37.5 (≈ 0.102 to 0.202 mM)	37.5 to 75 (≈ 0.202 to 0.405 mM)	150 to 200 (≈ 0.81 to 1.08 mM)	600 to 1200 (≈ 3.24 to 6.48 mM)	75 to 150 (≈ 0.405 to 0.81 mM)	300 to 600 (≈ 1.62 to 3.24 mM)	600 to 1200 (≈ 3.24 to 6.48 mM)	600 to 1200 (≈ 3.24 to 6.48 mM)	1200 (≈ 6.48 mM)	600 to 1200 (≈ 3.24 to 6.48 mM)	75 to 150 (≈ 0.405 to 0.81 mM)	MIC (yeasts): 300 to 1200 µg/mL (≈ 1.62 to 6.48 mM); MIC (gram negative bacteria): 600 to 2400 µg/mL (≈ 3.24 to 13 mM); MIC (gram positive bacteria): 600 to 1200 µg/mL (≈ 3.24 to 6.48 mM); MIC (fungi): 37.5 to 600 µg/mL (≈ 0.202 to 3.24 mM); bacteriostatic activity [1]: remarkable bacteriostatic activity; effect in combination (certain bacteria): synergistic effect; LD50 at 24 h ([2]; ♀ rats): 860 mg/kg; LD50 at 48 h ([2]; ♀ rats): 860 mg/kg; LD50 at 336 h ([2]; ♀ rats): 860 mg/kg; LD50 at 24 h ([2]; ♂ + ♀ rats): 1070 mg/kg; LD50 at 48 h ([2]; ♂ + ♀ rats): 1020 mg/kg; LD50 at 336 h ([2]; ♂ + ♀ rats): 1020 mg/kg; LD50 at 24 h ([2]; ♂ rats): 1380 mg/kg; LD50 at 48 h ([2]; ♂ rats): 1220 mg/kg; LD50 at 336 h ([2]; ♂ rats): 1220 mg/kg; oral toxicity ([2]; result in words): low oral toxicity
COC1=NS(=O)(=O)c2ccccc21 [3-methoxy-1,2-benzisothiazole-1,1-dioxide, reference compound]	> 1200	600 to 1200 (≈ 3.04 to 6.08 mM)	600 to 1200 (≈ 3.04 to 6.08 mM)	> 1200	> 1200	> 1200	> 1200	> 1200	> 1200	1200 (≈ 6.08 mM)	> 1200	600 to 1200 (≈ 3.04 to 6.08 mM)	> 1200	
